Test results: US20240309319A1, “COMPOSITIONS AND METHODS FOR THE GENERATION OF NEURONS AND USES THEREOF” (Washington University, priority 2021, published 2024)

System: cortical markers TBR1, MEF2C, BRN2, NEUROD2
Test: qPCR of cortical markers in miNs versus starting fibroblasts
Assay type: cell-based, human
Settings: combination of MYT1L and ISX9 with miR-9/9*-124, day 30 miNs, ISX9 10 uM on PID 3, 6, 10, 14
Method: Direct Neuronal Reprogramming: Human fibroblasts were directly reprogrammed to miNs as previously described with modifications. Briefly, fibroblasts were transduced with supernatant lentivirus mix comprised of dox-inducible miR-9/9*-124, rtTA, and the transcription factor MYT1L. From PID1 to PID14 cells were treated with DAPT (2 uM) to increase neurite outgrowth and neuronal differentiation, and on PID 3, 6, 10, and 14, cells were also treated with the NEUROD1-activator ISX9 (10 uM) to push cortical fate. Fibroblasts and reprogramming cells were cultured in DMEM+10% FBS through replating at PID5. On PID6, cells were switched to Neurobasal-A with B27+(1000×) and Glutamax (500×), containing 1 μg/mL doxycycline, 200 μM dibutyl cyclic AMP, 1 mM valproic acid, 2 uM DAPT, 200 nM Ascorbic Acid, 10 ng/mL BDNF, 10 ng/mL NT-3, 1 μM retinoic acid, 10 uM ISX9, 100×RVC, and 3 μg/mL puromycin. […]
Quantitative PCR (qPCR): Total RNA was extracted from miNs using TRIzol (Invitrogen, USA) following manufacturer protocol. Reverse-transcription was performed with 150-200 ng of RNA with SuperScript IV First Strand Synthesis SuperMix (Invitrogen, USA). qPCR assay was run with SYBR Green PCR Master Mix and plate was run and analyzed on StepOnePlus Real-Time PCR System (AB Applied Biosystems, Germany). […] Expression values were calculated in Excel using the delta Ct method and Z-score calculation.

With `O=C(NC1CC1)c1cc(-c2cccs2)on1` [ISX9, Isoxazole 9] the “Cortical fate (cortical marker expression by qPCR)” value was “sufficient to drive the cortical fate”.
